In brackets after ≈: the same amount, converted by molar mass.
How the values were obtained:
[1] = system: S. Aureus MR; experiment: MIC by standard micro dilution method (NCCLS M7-A5); assay type: cell-based, Staphylococcus aureus; settings: Mueller-Hinton medium (cation-adjusted), 16-24 h at 35°C; for MIC: Staphylococcus aureus, read-out: Geometric Mean MIC
[2] = system: S. epidermidis; experiment: as above; assay type: cell-based, Staphylococcus epidermidis; settings: Mueller-Hinton medium (cation-adjusted), 16-24 h at 35°C; for MIC: Staphylococcus epidermidis, read-out: Geometric Mean MIC
[3] = system: S. pneumoniae; experiment: as above; assay type: cell-based, Streptococcus pneumoniae; settings: 20-24h at 35°C; for MIC: Streptococcus pneumoniae, 5% CO2, read-out: Geometric Mean MIC
[4] = molecular target: T1, human MAO-A (Homo sapiens, UniProt P21397); experiment: In vitro MAO-A enzymatic activity (kynuramine substrate, fluorometry); assay type: biochemical; settings: membranes from SF9 cells expressing human MAO-A; kynuramine 30 µM, 37° for 40 min
T1 construct: purchased Gentest, BD, USA; host or cells: SF9 cells (membranes)
T1 sequence (P21397 1-527): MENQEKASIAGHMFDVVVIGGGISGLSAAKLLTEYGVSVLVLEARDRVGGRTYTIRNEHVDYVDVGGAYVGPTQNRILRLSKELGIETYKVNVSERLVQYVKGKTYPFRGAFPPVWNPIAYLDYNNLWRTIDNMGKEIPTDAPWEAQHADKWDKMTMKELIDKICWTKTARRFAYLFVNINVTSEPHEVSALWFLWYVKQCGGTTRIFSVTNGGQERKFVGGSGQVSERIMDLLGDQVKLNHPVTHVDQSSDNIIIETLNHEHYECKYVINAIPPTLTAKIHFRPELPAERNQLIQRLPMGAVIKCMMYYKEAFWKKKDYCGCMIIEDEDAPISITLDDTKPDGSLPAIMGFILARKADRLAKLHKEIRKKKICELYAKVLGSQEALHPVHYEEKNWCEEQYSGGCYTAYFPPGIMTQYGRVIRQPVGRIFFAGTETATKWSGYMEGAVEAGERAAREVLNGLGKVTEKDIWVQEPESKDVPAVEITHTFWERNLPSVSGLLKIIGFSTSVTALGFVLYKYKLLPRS
Protocol: (§1) MAO-A and MAO-B enzymatic activities were measured using membranes obtained from SF9 cells expressing either human MAO-A or human MAO-B (Gentest, BD, USA). Assays were done in blank 96-well micro titter plates using kynuramine as substrate and measuring the formation of 4-hydroxyquinoline by fluorescence at 340 nm/465 nm. Briefly, membranes with MAO-A (0.006 mg/mL protein) and MAO-B (0.015 mg/mL protein) were incubated with kynuramine, 30 µM), at 37° for 40 min in the presence of the compound in a final volume of 200 µL. Reactions were stopped by adding NaOH 2N and the reaction product, 4-hydroxyquinoline, was determined by fluorometry using a Tecan Ultra reader.

[5] = molecular target: T2, human MAO-B (Homo sapiens, UniProt P27338); experiment: In vitro MAO-B enzymatic activity (kynuramine substrate, fluorometry); assay type: biochemical; settings: membranes from SF9 cells expressing human MAO-B; kynuramine 30 µM, 37° for 40 min
T2 construct: purchased Gentest, BD, USA; host or cells: SF9 cells (membranes)
T2 sequence (P27338 1-520): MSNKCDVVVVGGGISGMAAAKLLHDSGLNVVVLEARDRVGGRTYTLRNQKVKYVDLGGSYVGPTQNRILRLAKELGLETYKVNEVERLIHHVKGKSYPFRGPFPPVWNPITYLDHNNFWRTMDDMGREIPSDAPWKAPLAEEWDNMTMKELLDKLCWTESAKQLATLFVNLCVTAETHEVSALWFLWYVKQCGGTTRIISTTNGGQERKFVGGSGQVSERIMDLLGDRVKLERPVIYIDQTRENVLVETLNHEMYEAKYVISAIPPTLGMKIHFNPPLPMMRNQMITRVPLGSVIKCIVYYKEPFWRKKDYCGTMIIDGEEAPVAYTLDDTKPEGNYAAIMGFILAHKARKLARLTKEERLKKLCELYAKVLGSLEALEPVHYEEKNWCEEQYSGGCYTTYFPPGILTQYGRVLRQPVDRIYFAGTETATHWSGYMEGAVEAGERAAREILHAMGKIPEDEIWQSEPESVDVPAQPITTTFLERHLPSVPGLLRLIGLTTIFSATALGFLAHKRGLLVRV
Protocol: as §1

[6] = system: Moxarella, Pasteurella and Bacteroides spp.; settings: background art; cited from earlier work

Compound | MIC [1] [µg/mL] | MIC [2] [µg/mL] | MIC [3] [µg/mL] | Ki [4] [µM] | Ki [5] [µM] | MICs [6] [µg/mL] | Geometric Mean MIC [1] [µg/mL] | Geometric Mean MIC [2] [µg/mL] | Geometric Mean MIC ([3]; 5% CO2) [µg/mL]
CC(=O)NC[C@H]1CN(c2ccc(-c3nnnn3C)c(F)c2)C(=O)O1 [Example 2, N-[[(5S)-3-[3-fluoro-4-(1-methyl-1H-tetrazol-5-yl)-phenyl]-2-oxo-5-oxazolidinyl]methyl]acetamide] | 2 (≈ 5.98 µM) | 2 (≈ 5.98 µM) | 2 (≈ 5.98 µM) | 74.2 | 14.2 |  |  |  | 
CC(=O)NC[C@H]1CN(c2ccc(-c3nnn(CCO)n3)c(F)c2)C(=O)O1 [Example 7, N-[[(5S)-3-[3-fluoro-4-(2-hydroxyethyl-2H-tetrazol-5-yl)-phenyl]-2-oxo-5-oxazolidinyl]methyl]acetamide] |  |  |  | 28.8 | 8.1 |  |  |  | 
CC(=O)NC[C@H]1CN(c2ccc(N3CCOCC3)c(F)c2)C(=O)O1 [Linezolid, N-[[(5S)-3-[3-fluoro-4-(4-morpholinyl)phenyl]-2-oxo-5-oxazolidinyl]methyl]acetamide, reference compound] | 1 (≈ 2.96 µM) | 1 (≈ 2.96 µM) | 1 (≈ 2.96 µM) |  |  | 2 to 8 |  |  | 
N-[[(5S)-3-[3-fluoro-4-(1-hydroxyethyl-1H-tetrazol-5-yl)-phenyl]-2-oxo-5-oxazolidinyl]methyl]acetamide [Example 8] |  |  |  |  |  |  | 2 | 1 | 2
N-[[(5S)-3-[3-fluoro-4-(2-acetoacetyl-2H-tetrazol-5-yl)-phenyl]-2-oxo-5-oxazolidinyl]methyl]acetamide [Example 6] |  |  |  | 37.1 | 10.1 |  |  |  | 

From patent publication EP2072514A1, “1(2)H-tetrazol-5-yl-phenyl-oxazolidinones as antibacterial agents” (Ferrer Internacional, S.A., priority 2007, dated 2009)
